Source: patent publication US20260309717A1, “PROXIMITY INDUCING SYSTEM AND USES THEREOF” (SORBONNE UNIVERSITE, priority 2022, published 2026)

Key:
[1] = molecular target: T1, ^FIREmate and ^FIREtag (TOM20-ECFP-^FIREmate / mCherry-^FIREtag) (Halorhodospira halophila, UniProt P16113, A30V/C69G/D97P/F96I, form not given/G21E/G25R/K17N/M100R/M109L/Q41L/Q99S/S72T/T101G/V83A/Y94W/Y98T); test: Recruitment of cytoplasmic mCherry-^FIREtag to mitochondria (TOM20-ECFP-^FIREmate), time-lapse confocal microscopy, HeLa cells; type: cell-based; conditions: 10 μM
T1 construct: TOM20(1-34)-ECFP-FIREmate and mCherry-FIREtag in HeLa or U2OS cells
T1 sequence (P16113 1-114 A30V/C69G/D97P/F96I/G21E/G25R/K17N/M100R/M109L/Q41L/Q99S/S72T/T101G/V83A/Y94W/Y98T): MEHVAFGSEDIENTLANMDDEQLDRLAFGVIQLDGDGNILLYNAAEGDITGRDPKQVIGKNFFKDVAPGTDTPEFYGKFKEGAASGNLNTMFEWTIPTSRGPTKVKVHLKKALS
Method: FIGS. 3A-E illustrate the recruitment of cytoplasmic proteins to mitochondria with the proximity inducing system described herein. FIG. 3A is a schematic representation of the experimental design wherein HeLa cells co-expressing mCherry-^FIREtag and Tom20-ECFP-^FIREmate were treated with 10 μM of match (either HBR-2,5DM or HMBR), and imaged by time-lapse confocal microscopy. FIGS. 3B-C are graphs showing the temporal evolution of the FIRE signal detected upon addition at 0 min of HBR-2,5DM (match1-3B) or HMBR (match2-3C). Data represents the mean values±SD of 20 cells from n=3 independent experiments (3B, D), or of 10 cells from n=3 independent experiments (3C, E). FIGS. 3D-E are sets of representative confocal micrographs of cells before (0 min) and after (5 min) addition of HBR-2,5DM (match1-3D) or HMBR (match2-3E) (mCherry: ex/em 561/606-675 nm; FIRE: ex/em 488/508-570 nm; ECFP: ex/em 445/455-499 nm). […] Scale bars are 20 μm.
FIGS. 4A-D illustrate the recruitment over time of cytoplasmic proteins to mitochondria with the proximity inducing system described herein. (4A, C) HeLa cells co-expressing mCherry-^FIREtag and Tom20-ECFP-^FIREmate were treated with 10 μM HBR-2,5DM and imaged by time-lapse confocal microscopy at 1 image per 5 seconds. […] FIG. 4C is a graph showing the temporal evolution of the FIRE signal detected in HeLa cells upon addition of HBR-2,5DM at 0 sec. […] FIG. 4D is a graph showing the temporal evolution of the FIRE signal detected in U2OS cells upon addition of HBR-2,5DM at 0 min. […]
The confocal micrographs were acquired on a Zeiss LSM 980 Laser Scanning Microscope equipped with a plan apochromat 63x/1.4 NA oil immersion objective. […] The images were analyzed using Icy (2.4.0.0) and Fiji (Image J). In short, to track fluorescence signal in a specific organelle, a ROI (region of interest) was determined by masking the signal in the ECFP (Enhanced Cyan Fluorescent Protein) channel with the plug-in HK-means with the following parameters: intensity class equals 100, minimum object size (pixels or px) equals 500, maximum object size (px) equals 1500-3000. […]

[2] = test system: mCherry-FKBP-^FIREtag / TOM20-^FIREmate / FRB-ECFP-Giantin; test: Orthogonality with FRB-FKBP-rapamycin CIP system, confocal microscopy, HeLa cells; type: cell-based; conditions: simultaneous addition of 10 μM HBR-2,5DM and 500 nM rapamycin
Method: FIG. 12A is a representation of the experimental design wherein HeLa cells co-expressing mCherry-FKBP-^FIREtag, TOM20-^FIREmate and FRB-ECFP-Giantin were treated with 10 μM of match (i.e., HBR-2,5DM) and 500 nM rapamycin, and imaged by time-lapse confocal microscopy. FIG. 12B is a set of representative confocal micrographs of cells before and after addition of HBR-2,5DM (match1) and rapamycin (rap) (mCherry: ex/em 561/606-675 nm; FIRE: ex/em 488/508-570 nm; ECFP: ex/em 445/455-499 nm). Scale bars are 20 μm.
The confocal micrographs were acquired on a Zeiss LSM 980 Laser Scanning Microscope equipped with a plan apochromat 63x/1.4 NA oil immersion objective. ZEN software was used to collect the data. The images were analyzed using Icy (2.4.0.0) and Fiji (Image J). In short, to track fluorescence signal in a specific organelle, a ROI (region of interest) was determined by masking the signal in the ECFP (Enhanced Cyan Fluorescent Protein) channel with the plug-in HK-means with the following parameters: intensity class equals 100, minimum object size (pixels or px) equals 500, maximum object size (px) equals 1500-3000. The signal intensity of the ROI was tracked over time for each channel by using plug-in Active Contours. The background signal was subtracted. Data were processed using GraphPad Prism v9.3.0. […]

With `Cc1cc(/C=C2\SC(=S)NC2=O)c(C)cc1O` [HBR-2,5DM, (Z)-5-(4-hydroxy-2,5-dimethylbenzylidene)-2-thioxo-1,3-thiazolidin-4-one] the “half-time of formation of the ternary fluorescent assembly” value ([1]; 1 image per 5 seconds) was “about 20 seconds”, the “translocation of mCherry-^FIREtag from cytosol to mitochondria” value ([1]; 5 min) was “very rapid translocation of the mCherry-^FIREtag fusion protein from the cytosol to mitochondria” and the “FIRE signal (fluorescence) at the mitochondria” value ([1]; ex/em 488/508-570 nm) was “simultaneous appearance of a strong green fluorescent signal”. The “translocation of mCherry-FKBP-^FIREtag” value [2] was “triggered the translocation of mCherry-FKBP-^FIREtag to the Golgi apparatus and to the mitochondria”.
